According to article PMC6593445, “Promiscuous terpene synthases from Prunella vulgaris highlight the importance of substrate and compartment switching in terpene synthase evolution” (The New Phytologist, 2019):

What was measured:
Assay in all cases: in vitro TPS assay, GC-MS of products
Type in all cases: biochemical
Conditions in all cases: 10 mM MgCl2, 100 mM KCl, 5 mM DTT, 50 mM HEPES pH 7.2, 30 °C, 4 h
[1] = target: T1, PvTPS2 (Prunella vulgaris, UniProt A0A3S8D7T7)
T1 construct: N-terminal truncation removing 48 aa predicted plastid transit peptide; pET28b+, E. coli C41, Ni-NTA purified; TPS-a subfamily
T1 sequence (A0A3S8D7T7 49-597): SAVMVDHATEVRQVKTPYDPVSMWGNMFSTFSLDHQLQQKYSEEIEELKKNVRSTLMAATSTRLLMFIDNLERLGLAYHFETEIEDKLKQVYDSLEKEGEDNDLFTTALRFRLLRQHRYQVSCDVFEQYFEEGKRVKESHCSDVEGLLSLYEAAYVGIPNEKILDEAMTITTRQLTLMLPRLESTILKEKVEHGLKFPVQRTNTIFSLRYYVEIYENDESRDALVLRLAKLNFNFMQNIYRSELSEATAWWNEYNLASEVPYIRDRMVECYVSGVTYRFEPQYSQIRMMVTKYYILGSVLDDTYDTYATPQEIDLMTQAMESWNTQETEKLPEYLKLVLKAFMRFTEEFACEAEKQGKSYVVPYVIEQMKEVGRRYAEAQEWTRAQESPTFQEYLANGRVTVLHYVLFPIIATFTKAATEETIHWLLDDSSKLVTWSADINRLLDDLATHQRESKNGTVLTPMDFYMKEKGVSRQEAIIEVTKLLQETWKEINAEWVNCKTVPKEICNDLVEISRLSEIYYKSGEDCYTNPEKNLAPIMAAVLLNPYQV

[2] = target: T2, PvHVS (Prunella vulgaris, UniProt A0A3Q8J789)
T2 construct: N-terminal truncation removing 43 aa predicted plastid transit peptide; pET28b+, E. coli C41, Ni-NTA purified; TPS-a diterpene synthase
T2 sequence (A0A3Q8J789 44-599): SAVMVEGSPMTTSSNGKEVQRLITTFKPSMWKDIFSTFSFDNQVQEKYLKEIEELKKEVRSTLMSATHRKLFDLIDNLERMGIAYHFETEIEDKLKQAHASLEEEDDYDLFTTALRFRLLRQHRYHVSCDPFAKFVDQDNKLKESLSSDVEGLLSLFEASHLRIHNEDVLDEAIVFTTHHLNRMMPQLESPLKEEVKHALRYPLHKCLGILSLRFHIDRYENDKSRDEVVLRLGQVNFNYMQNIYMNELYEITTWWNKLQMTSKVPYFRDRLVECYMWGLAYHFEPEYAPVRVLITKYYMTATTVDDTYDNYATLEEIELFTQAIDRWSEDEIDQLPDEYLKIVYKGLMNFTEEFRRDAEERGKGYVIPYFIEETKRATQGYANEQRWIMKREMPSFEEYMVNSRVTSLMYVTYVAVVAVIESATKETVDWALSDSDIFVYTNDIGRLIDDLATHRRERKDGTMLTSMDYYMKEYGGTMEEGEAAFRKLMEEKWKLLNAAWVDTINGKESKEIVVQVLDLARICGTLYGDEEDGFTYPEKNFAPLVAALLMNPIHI

[3] = target: T3, PvTPS5 (Prunella vulgaris, UniProt A0A3S8D7W9)
T3 construct: full length, cytosolic (no transit peptide); pET28b+, E. coli C41, Ni-NTA purified; TPS-a subfamily
T3 sequence (A0A3S8D7W9 1-555): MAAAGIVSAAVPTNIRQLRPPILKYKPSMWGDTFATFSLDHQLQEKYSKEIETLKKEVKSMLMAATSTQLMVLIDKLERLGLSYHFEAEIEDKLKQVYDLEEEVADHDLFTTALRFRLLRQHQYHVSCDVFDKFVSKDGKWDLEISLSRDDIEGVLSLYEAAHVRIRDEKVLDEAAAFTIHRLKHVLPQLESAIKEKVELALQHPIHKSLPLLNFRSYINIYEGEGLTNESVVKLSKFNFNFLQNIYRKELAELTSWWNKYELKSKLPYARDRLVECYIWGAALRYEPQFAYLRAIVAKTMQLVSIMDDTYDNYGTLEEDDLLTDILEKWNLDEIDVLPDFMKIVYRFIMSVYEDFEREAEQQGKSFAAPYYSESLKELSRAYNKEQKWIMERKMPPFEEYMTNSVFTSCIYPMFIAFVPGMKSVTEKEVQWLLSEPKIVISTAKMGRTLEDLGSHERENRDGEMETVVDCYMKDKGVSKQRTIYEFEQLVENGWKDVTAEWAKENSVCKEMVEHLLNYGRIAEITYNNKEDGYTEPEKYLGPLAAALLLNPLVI

[4] = target: T4, PvTPS4 (Prunella vulgaris, UniProt A0A3S8D7W5)
T4 construct: full length, cytosolic (no transit peptide); pET28b+, E. coli C41, Ni-NTA purified; TPS-a subfamily
T4 sequence (A0A3S8D7W5 entry or part of it): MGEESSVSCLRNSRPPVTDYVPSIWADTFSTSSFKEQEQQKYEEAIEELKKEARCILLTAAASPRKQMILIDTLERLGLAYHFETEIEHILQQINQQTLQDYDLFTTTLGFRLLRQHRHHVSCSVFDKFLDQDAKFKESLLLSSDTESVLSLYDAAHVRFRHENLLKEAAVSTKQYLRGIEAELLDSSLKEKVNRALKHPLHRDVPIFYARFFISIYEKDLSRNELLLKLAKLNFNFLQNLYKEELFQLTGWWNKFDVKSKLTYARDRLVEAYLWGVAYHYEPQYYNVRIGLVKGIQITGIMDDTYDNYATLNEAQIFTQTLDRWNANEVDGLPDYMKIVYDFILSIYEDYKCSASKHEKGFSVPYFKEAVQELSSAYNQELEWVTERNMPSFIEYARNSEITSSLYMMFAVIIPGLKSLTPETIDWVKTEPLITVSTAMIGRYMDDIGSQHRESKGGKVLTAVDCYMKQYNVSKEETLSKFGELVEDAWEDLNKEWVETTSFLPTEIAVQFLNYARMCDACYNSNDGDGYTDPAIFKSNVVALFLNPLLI

Structure (SMILES)	in vitro TPS assay, GC-MS of products [1]	in vitro TPS assay, GC-MS of products [2]	in vitro TPS assay, GC-MS of products [3]	in vitro TPS assay, GC-MS of products [4]
CC(C)=CCC/C(C)=C/CC/C(C)=C/COP(=O)(O)OP(=O)(O)O [(E,E)‐FPP]	All four enzymes were active against (E,E)‐FPP both in vitro, and in N. benthamiana	All four enzymes were active against (E,E)‐FPP both in vitro, and in N. benthamiana	All four enzymes were active against (E,E)‐FPP both in vitro, and in N. benthamiana	All four enzymes were active against (E,E)‐FPP both in vitro, and in N. benthamiana
CC(C)=CCC/C(C)=C/CC/C(C)=C/CC/C(C)=C/COP(=O)(O)OP(=O)(O)O [GGPP]	Only PvTPS2 and PvHVS were active in vitro and in N. benthamiana against GGPP	Only PvTPS2 and PvHVS were active in vitro and in N. benthamiana against GGPP		
CC(C)=CCC/C(C)=C\COP(=O)(O)OP(=O)(O)O [NPP]			all four enzymes were found to catalyse cyclisation of NPP	all four enzymes were found to catalyse cyclisation of NPP
